From patent US20050136536A1, “Embryonic epithelial cells” (priority 2003, published 2005) come the findings set out here.

The experiment concerns cytokeratin 7. As to the kind of experiment: differentiation of hES cells on gelatin-coated glass slides, cytokeratin 7 staining. The following applies: 300 nM AM580, serum medium, stained after 6 or 8 days. The experiment is classed as cell-based, human. On the procedure: H9 cells (Thomson, J. A., et al., “Embryonic stem cells lines derived from human blastocysts”, Science 282, 1145-1147 (1998)) were grown as described in Spradling, A., et al., “Stem cells find their niche”, Nature 414, 98-104 (2001), the entire contents of which are incorporated herein by reference. C2C12 cells were grown as described in Yaffee, D. & Saxel, O., “Serial passaging and differentiation of myogenic cells isolated from dystrophic mouse muscle”, Nature 270, 725-7 (1977). Specifically, hES cells (H9 clone) were grown on mouse embryo fibroblasts (Cell Essential) in KnockOut Medium (Gibco-BRL, Gaithersburg, Md.), a modified version of Dulbeco's modified Eagle's medium optimized for ES cells (Itskovitz-Eldor, et. al., (2000) Mol. Med. 6, 88-95, the contents of which are incorporated herein by reference). Tissue cover plates were covered with 0.1% gelatin (Sigma). Culture were grown in 5% CO2 and were routinely passaged every 5-6 days after disaggregating with 1 mg/ml collagenase type IV (Gibco-BRL). To induce formation of EBs, hES colonies were digested using either 1 mg/ml collagenase type IV or trypsin/EDTA (0.1%/1 mM) and transferred to petri dishes to allow their aggregation and prevent adherence to the plate. […]

Take `CC1(C)CCC(C)(C)c2cc(C(=O)Nc3ccc(C(=O)O)cc3)ccc21` [AM580]: the “development of cytokeratin 7-positive cells” value is “increases the development of cytokeratin 7-positive cells”.
